In patent publication US20230416316A1, “ADP-RIBOSE BINDING PEPTIDES WITH ANTI-CANCER ACTIVITY AND USE THEREOF” (PearlsInMires Co., Ltd., priority 2021, published 2023):

Tests used:
Assay type in all cases: cell-based
[1] = system: Aspc-1 cells; test: Cell viability (MTT, photomicrographs) in Aspc-1 cells; conditions: 16 μM peptide, 24 hours
Experimental: (§1) After culturing 3×10^3 Aspc-1 cells in a 96-well plate for 24 hours under conditions of 37° C. and 5% CO2, the cells were either untreated or treated with the peptides of Examples 1 to 28 at a concentration of 16 μM, respectively. Then, the cells were cultured for 24 hours under conditions of 37° C. and 5% CO2, and 10 μl of 3-(4,5-dimethylthiazol-2-yl)-2,5-diphenyltetrazolium bromide reagent was added to each well, followed by reaction for 1 hour. After the reaction was completed, the reagent was removed, 200 μl of dimethyl sulfoxide was added to each well, and the absorbance was measured to confirm cell viability.

[2] = system: Aspc-1 cells; test: ADP-ribose level by ELISA in Aspc-1 cells; conditions: 0.2-32 μM peptide, 24 hours
Experimental: (§2) The peptides of Examples 1 to 28 of the present disclosure are designed to inhibit the action of poly ADP-ribose degradation enzyme. In Experimental Example 1, it was confirmed through cell experiments whether poly ADP-ribose was inhibited from being degraded by each of the peptides and accumulated in cancer cells.
5×10^5 Aspc-1 cells were divided into a group not treated with the peptide of Example and a group treated with 0.2, 1, 2, 4, 8, 16, and 32 μM of the peptide of Example 3 (SEQ ID NO: 3), and cultured for 24 hours under conditions of 37° C. and 5% CO2 in RPMI-1640 medium supplemented with 10% FBS, 100 units/ml penicillin, and 100 μg/ml streptomycin. The medium of the cultured cells was removed, and the samples were treated with RIPA buffer and 1% SDS. The prepared supernatant was used for ELISA analysis to detect and analyze ADP-ribose.

[3] = system: H1975 cells; test: Cell viability (MTT, photomicrographs) in H1975 cells; conditions: 16 μM peptide, 24 hours
Experimental: as §1, with “H1975” for “Aspc-1”

[4] = system: H1975 cells; test: ADP-ribose level by ELISA in H1975 cells; conditions: 0.2-32 μM peptide, 24 hours
Experimental: as §2
5×10^5 H1975 cells were divided into a group not treated with the peptide of Example and a group treated with 0.2, 1, 2, 4, 8, 16, and 32 μM of the peptide of Example 2 (SEQ ID NO: 2), and cultured for 24 hours under conditions of 37° C. and 5% CO2 in RPMI-1640 medium supplemented with 10% FBS, 100 units/ml penicillin, and 100 μg/ml streptomycin. The medium of the cultured cells was removed, and the samples were treated with RIPA buffer and 1% SDS. The prepared supernatant was used for ELISA analysis to detect and analyze ADP-ribose.

[5] = system: MDA-MB-231 cells; test: Cell viability (MTT, photomicrographs) in MDA-MB-231 cells; conditions: 16 μM peptide, 24 hours
Experimental: as §1, with “culturing 3×10^3 MDA-MB-231 cells in” for “culturing 3×10^3 Aspc-1 cells in”, “and 5% C02, the cells” for “and 5% CO2, the cells”

[6] = system: Hep G2 cells; test: Cell viability (MTT, photomicrographs) in Hep G2 cells; conditions: 16 μM peptide, 24 hours
Experimental: 2-4. Change in viability in Hep G2 cells according to treatment with ADP-ribose binding peptide After culturing 3×10^3 Hep G2 cells in a 96-well plate for 24 hours under conditions of 37° C. and 5% CO2, the cells were either untreated or treated with the peptides of Examples 1 to 28 at a concentration of 16 μM, respectively. Then, the cells were cultured for 24 hours under conditions of 37° C. and 5% CO2, and 10 μl of 3-(4,5-dimethylthiazol-2-yl)-2,5-diphenyltetrazolium bromide reagent was added to each well, followed by reaction for 1 hour. After the reaction was completed, the reagent was removed, 200 μl of dimethyl sulfoxide was added to each well, and the absorbance was measured to confirm cell viability.

[7] = system: Caki-1 cells; test: Cell viability (MTT, photomicrographs) in Caki-1 cells; conditions: 16 μM peptide, 24 hours
Experimental: as §1, with “Caki-1” for “Aspc-1”

[8] = system: HCT116 cells; test: Cell viability (MTT, photomicrographs) in HCT116 cells; conditions: 16 μM peptide, 24 hours
Experimental: as §1, with “HCT116” for “Aspc-1”

[9] = system: U-87MG cells; test: Cell viability (MTT, photomicrographs) in U-87MG cells; conditions: 16 μM peptide, 24 hours
Experimental: as §1, with “U-87MG” for “Aspc-1”

[10] = system: U-87MG cells; test: ADP-ribose level by ELISA in U-87MG cells; conditions: 0.2-32 μM peptide, 24 hours
Experimental: as §2
5×10^5 U-87MG cells were divided into a group not treated with the peptide of Example and a group treated with 0.2, 1, 2, 4, 8, 16, and 32 μM of the peptide of Example 1 (SEQ ID NO: 1) or Example 8 (SEQ ID NO: 8), and cultured for 24 hours under conditions of 37° C. and 5% CO2 in Eagle's minimum essential medium (EMEM) supplemented with 10% FBS, 100 units/ml penicillin, and 100 μg/ml streptomycin. The medium of the cultured cells was removed, and the samples were treated with RIPA buffer and 1% SDS. The prepared supernatant was used for ELISA analysis to detect and analyze ADP-ribose.

## APYIIDLPSWTQFRQDIGTMRAVRR (APYIIDLPSWTQFRQDTGTMRAVRR; ADP-ribose binding peptide) [Example 3]
[1]
  cancer cell growth and survival: inhibited from growing and killed
[2]
  amount of increase in ADP-ribose (fold change) compared to the control group: significant increase in the amount of ADP-ribose in a concentration-dependent manner

## APYIIDLQSMNQFRQDIGTLRPVRR (APYIIDLQSMNQFRQDTGTLRPVRR; ADP-ribose binding peptide) [Example 2]
[3]
  cancer cell growth and survival: inhibited from growing and killed
[4]
  amount of increase in ADP-ribose (fold change) compared to the control group: significant increase in the amount of ADP-ribose in a concentration-dependent manner

## GRKKRRQRRRPQAPYIIDLPSWTQFRQDIGTMRAVRR (GRKKRRQRRRPQAPYIIDLPSWTQFRQDTGTMRAVRR; ADP-ribose binding peptide with CPP) [Example 17]
[1]
  cancer cell growth and survival: completely killed

## GRKKRRQRRRPQAPYIIDLQSMNQFRQDTGTLRPVRR (ADP-ribose binding peptide with CPP) [Example 16]
[3]
  cancer cell growth and survival: completely killed

## GRKKRRQRRRPQFCYLIYENSMSQMNRQTRRRRRLRR (GRKKRRQRRRPQFCYLIYFNSMSQMNRQTRRRRRLRR; ADP-ribose binding peptide with CPP) [Example 19]
[5]
  cancer cell growth and survival: completely killed

## GRKKRRQRRRPQFLYVADLENMVQYRRNEHGRRRKIKR (ADP-ribose binding peptide with CPP) [Example 25]
[6]
  cancer cell growth and survival: completely killed

## GRKKRRQRRRPQFSYKIDFAEMKQMNLTTGKQRLIKR (ADP-ribose binding peptide with CPP) [Example 21]
[7]
  cancer cell growth and survival: completely killed

## GRKKRRQRRRPQFSYVIDENTMGQINRQTQRQRRVRR (GRKKRRQRRRPQFSYVIDFNTMGQINRQTQRQRRVRR; ADP-ribose binding peptide with CPP) [Example 20]
[8]
  cancer cell growth and survival: completely killed

## GRKKRRQRRRPQGRYDVHLGERMRYAVYWDELASEVRR (ADP-ribose binding peptide with CPP) [Example 27]
[8]
  cancer cell growth and survival: completely killed

## GRKKRRQRRRPQRHYTVNLNTYTATDTKGHSLSVQR (ADP-ribose binding peptide with CPP) [Example 26]
[5]
  cancer cell growth and survival: completely killed

## GRKKRRQRRRPQRRYTVQFTTMVQVNEETGNRRPVM (ADP-ribose binding peptide with CPP) [Example 23]
[3]
  cancer cell growth and survival: completely killed

## GRKKRRQRRRPQRVYTIDENSMQQINEDTGTARAIQR (GRKKRRQRRRPQRVYTIDFNSMQQINEDTGTARAIQR; ADP-ribose binding peptide with CPP) [Example 18]
[6]
  cancer cell growth and survival: completely killed

## GRKKRRQRRRPQTAYEASVCDYLEQQVARGN (ADP-ribose binding peptide with CPP) [Example 28]
[7]
  cancer cell growth and survival: completely killed

## GRKKRRQRRRPQVPYIIDLQSMHQFRQDIGTMRPVRR (GRKKRRQRRRPQVPYIIDLQSMHQFRQDTGTMRPVRR; ADP-ribose binding peptide with CPP) [Example 15]
[9]
  cancer cell growth and survival: completely killed

## GRKKRRQRRRPQWIWYWKNESGTWIQYGEEKDKRKN (ADP-ribose binding peptide with CPP) [Example 24]
[1]
  cancer cell growth and survival: completely killed

## GRKKRRQRRRPQYNYTVNYTTHTQTNKTSSFCRSVRR (ADP-ribose binding peptide with CPP) [Example 22]
[9]
  cancer cell growth and survival: completely killed

## RRYTVQFTTMVQVNEETGNRRPVM (ADP-ribose binding peptide) [Example 9]
[3]
  cancer cell growth and survival: inhibited from growing and killed
[4]
  amount of increase in ADP-ribose (fold change) compared to the control group: significant increase in the amount of ADP-ribose in a concentration-dependent manner

## VPYIIDLQSMHQFRQDIGTMRPVRR (VPYIIDLQSMHQFRQDTGTMRPVRR; ADP-ribose binding peptide) [Example 1]
[9]
  cancer cell growth and survival: inhibited from growing and killed
[10]
  amount of increase in ADP-ribose (fold change) compared to the control group: significant increase in the amount of ADP-ribose in a concentration-dependent manner

## WIWYWKNESGTWIQYGEEKDKRKN (ADP-ribose binding peptide) [Example 10]
[1]
  cancer cell growth and survival: inhibited from growing and killed
[2]
  amount of increase in ADP-ribose (fold change) compared to the control group: significant increase in the amount of ADP-ribose in a concentration-dependent manner

## YNYTVNYTTHTQTNKTSSFCRSVRR (ADP-ribose binding peptide) [Example 8]
[9]
  cancer cell growth and survival: inhibited from growing and killed
[10]
  amount of increase in ADP-ribose (fold change) compared to the control group: significant increase in the amount of ADP-ribose in a concentration-dependent manner
